Measured values published in patent publication US9198433B2, “Substituted benzene fungicides” (E I DU PONT DE NEMOURS AND COMPANY, priority 2007, dated 2015).
Marks after values point to notes of the source that are not given here.

Columns and labels:
Format in all cases: in vivo
[1] = system: Puccinia recondita f. sp. tritici; experiment: Test B: wheat leaf rust, preventive spray on wheat seedlings, disease rating; settings: 40 ppm (*)
Text: (§1) The test compounds were first dissolved in acetone in an amount equal to 3% of the final volume and then suspended at the desired concentration (in ppm) in acetone and purified water (50/50 mix) containing 250 ppm of the surfactant Trem® 014 (polyhydric alcohol esters). The resulting test suspensions were then used in Tests A-L. Spraying a 200 ppm test suspension to the point of run-off on the test plants was the equivalent of an application rate of 500 g/ha. The test suspension was sprayed to the point of run-off on wheat seedlings. […] A dash (-) indicates no test results. All results are for 200 ppm except where followed by an “*”, which indicates 40 ppm or “**”, which indicates 50 ppm.

[2] = system: Septoria nodorum; experiment: Test C: wheat glume blotch, preventive spray on wheat seedlings, disease rating
Text: as §1

[3] = system: Alternaria solani; experiment: Test H: tomato early blight, preventive spray on tomato seedlings, disease rating
Text: (§2) The test compounds were first dissolved in acetone in an amount equal to 3% of the final volume and then suspended at the desired concentration (in ppm) in acetone and purified water (50/50 mix) containing 250 ppm of the surfactant Trem® 014 (polyhydric alcohol esters). The resulting test suspensions were then used in Tests A-L. Spraying a 200 ppm test suspension to the point of run-off on the test plants was the equivalent of an application rate of 500 g/ha. The test suspension was sprayed to the point of run-off on tomato seedlings. […] A dash (-) indicates no test results. All results are for 200 ppm except where followed by an “*”, which indicates 40 ppm or “**”, which indicates 50 ppm.

[4] = system: Septoria tritici; experiment: Test D: wheat leaf blotch, preventive spray on wheat seedlings, disease rating; settings: 40 ppm (*)
Text: The test compounds were first dissolved in acetone in an amount equal to 3% of the final volume and then suspended at the desired concentration (in ppm) in acetone and purified water (50/50 mix) containing 250 ppm of the surfactant Trem® 014 (polyhydric alcohol esters). The resulting test suspensions were then used in Tests A-L. Spraying a 200 ppm test suspension to the point of run-off on the test plants was the equivalent of an application rate of 500 g/ha. The test suspension was sprayed to the point of run-off on wheat seedlings. The following day the seedlings were inoculated with a spore suspension of Septoria tritici (the causal agent of wheat leaf blotch) and incubated in a saturated atmosphere at 24° C. for 48 h, and then moved to a growth chamber at 20° C. for 19 days, after which time disease ratings were made. […] A dash (-) indicates no test results. All results are for 200 ppm except where followed by an “*”, which indicates 40 ppm or “**”, which indicates 50 ppm.

[5] = system: Botrytis cinerea; experiment: Test F: tomato Botrytis, preventive spray on tomato seedlings, disease rating
Text: as §2

[6] = system: Erysiphe graminis f. sp. tritici; experiment: Test A: wheat powdery mildew, preventive spray on wheat seedlings, disease rating; settings: 40 ppm (*)
Text: as §1

Row | Structure (SMILES) | Percentage Disease Control, Test B [1] | Percentage Disease Control, Test C ([2]; 40 ppm (*)) | Percentage Disease Control, Test H ([3]; 40 ppm (*)) | Percentage Disease Control, Test D [4] | Percentage Disease Control, Test F ([5]; 40 ppm (*)) | Percentage Disease Control, Test A [6] | Percentage Disease Control, Test H ([3]; 200 ppm) [%] | Percentage Disease Control, Test F ([5]; 200 ppm) [%] | Percentage Disease Control, Test C ([2]; 200 ppm) [%]
1 | COC(=O)NCc1cc(-c2ccn(CC(C)Oc3ccccc3)n2)ccc1Cl (racemic) [Cmpd 61] | 100* % | 99* % | 0* % | 99* % | 0* % | 84* % | – | – | –
2 | COC(=O)NCc1cc(-c2ccn(-c3ccccc3C(F)(F)F)n2)ccc1Cl [Cmpd 51] | 99* % | 98* % | 60* % | 100* % | 0* % | 97* % | – | – | –
3 | COC(=O)NCc1cc(-c2ccn(-c3ccccc3Cl)n2)ccc1Cl [Cmpd 52] | 100* % | 100* % | – | 100* % | – | 100* % | 92 | 99 | –
4 | COC(=O)NCc1cc(-c2ccn(Cc3cc(C(F)(F)F)ccc3Cl)n2)ccc1Cl [Cmpd 53] | 99* % | 94* % | 92* % | 99* % | 0* % | 98* % | – | – | –
5 | COC(=O)NCc1cc(-c2ccn(-c3ccccc3C(C)=O)n2)ccc1Cl [Cmpd 54] | 100* % | 99* % | – | 99* % | 0* % | 99* % | – | – | –
6 | COC(=O)NCc1cc(-c2ccn(Cc3ccc(-c4ccccc4C#N)cc3)n2)ccc1Cl [Cmpd 55] | 88* % | 92* % | 16* % | 95* % | 0* % | 88* % | – | – | –
7 | COC(=O)NCc1cc(-c2ccn(CCC(=O)c3ccc(Cl)cc3)n2)ccc1Cl [Cmpd 56] | 97* % | 97* % | 92* % | 90* % | 0* % | 89* % | – | – | –
8 | COC(=O)NCc1cc(-c2ccn(Cc3ccccc3)n2)ccc1Cl [Cmpd 57] | 100* % | 87* % | 96* % | 100* % | 0* % | 97* % | – | – | –
9 | COC(=O)NCc1cc(-c2ccn(CCc3ccccc3)n2)ccc1Cl [Cmpd 58] | 100* % | 100* % | 89* % | 99* % | 0* % | 98* % | – | – | –
10 | COC(=O)NCc1cc(-c2ccn(CCOc3ccccc3)n2)ccc1Cl [Cmpd 59] | 100* % | 99* % | 87* % | 97* % | 0* % | 98* % | – | – | –
11 | COC(=O)NCc1cc(-c2ccn(Cc3cccc(Cl)c3)n2)ccc1Cl [Cmpd 60] | 99* % | 99* % | 24* % | 99* % | 0* % | 98* % | – | – | –
12 | COC(=O)NCc1cc(-c2ccn(Cc3ccccc3C(F)(F)F)n2)ccc1Cl [Cmpd 62] | 99* % | 100* % | 0* % | 100* % | 0* % | 99* % | – | – | –
13 | COC(=O)NCc1cc(-c2ccn(Cc3ccc(C(F)(F)F)cc3)n2)ccc1Cl [Cmpd 63] | 100* % | 99* % | 98* % | 100* % | 0* % | 97* % | – | – | –
14 | COC(=O)NNc1cc(-c2ccn(-c3cccc(C(F)(F)F)c3)n2)ccc1Cl [Cmpd 64] | 100* % | – | – | 93* % | – | 99* % | 62 | 16 | 99
15 | COC(=O)NCc1cc(-c2ccn(Cc3ccccc3C)n2)ccc1Cl [Cmpd 70] | 99* % | 100* % | 96* % | 100* % | – | 99* % | – | – | –
16 | COC(=O)NCc1cc(-c2ccn(Cc3cccc(C)c3)n2)ccc1Cl [Cmpd 71] | 100* % | 100* % | 84* % | 100* % | – | 99* % | – | – | –
17 | COC(=O)NCc1cc(-c2ccn(-c3ccc(OC(F)(F)F)cc3)n2)ccc1Cl [Cmpd 77] | 100* % | 100* % | 96* % | 100* % | – | 99* % | – | – | –
18 | COC(=O)NCc1cc(-c2ccn(-c3ccc(C(F)(F)F)cc3)n2)ccc1Cl [Cmpd 79] | 99* % | 100* % | – | 99* % | 0* % | 99* % | – | – | –
19 | COC(=O)NCc1cc(-c2ccn(-c3ccc(-c4ccccc4)cc3)n2)ccc1Cl [Cmpd 82] | 0* % | 86* % | 7* % | – | 0* % | 60* % | – | – | –
20 | CCCCn1nc(-c2ccc(Cl)c(CNC(=O)OC)c2)cc1C(F)(F)F [Cmpd 102] | 98* % | 96* % | – | 98* % | – | 98* % | – | 0 | –
21 | CCCn1nc(-c2ccc(Cl)c(CNC(=O)OC)c2)cc1C(F)(F)F [Cmpd 103] | 98* % | – | – | 99* % | – | 99* % | – | 0 | 87
